Results: patent US5686466A, “Tricyclic condensed heterocyclic compounds their production and use” (priority 1993, dated 1997)

How the values were obtained:
[1] = background art; cited from earlier work
[2] = system: [^3 H]-norepinephirine(NE) uptake; test: monoamine uptake inhibition, [^3 H]-norepinephirine (NE), crude synaptosomal preparations of cerebral cortex and hippocampus; type: biochemical; details: [^3 H]-NE 11 nM; 37° C; rat synaptosomes; read-out: Monoamine Reuptake Inhibitory Activity IC50, NE
Description: (§1) Effects of the compound of this invention on monoamine uptake were investigated using [^3 H]-norepinephirine(NE) and [3H]-serotonin (5-HT). Rats were sacrificed by decapitation. The cerebral cortex and hippocampus were removed and homogenized in 10-15 volumes (W/V) of an ice-cold medium containing 0.32M sucrose. Crude synaptosomal preparations (P2) were isolated after differential centrifugation at 1000×g for 10 min and 20,000×g for 30 min at 4° C. Synaptosomal membranes were suspended in Krebs-Ringer bicarbonate (KRB) solution (116 mM NaCl, 4.8 mM KCl, 1.3 mM CaCl2, 1.2 mM MgSO4, 1.2 mM NaH2 PO4, 25 mM NaHCO3, 0.1 mM EDTA-2Na, 11.1 mM D-glucose, 0.11 mM L-ascorbic acid, 0.01 mM pargyline). Synaptosomal membrane suspension (900 μl) was preincubated with the test compound dissolved in DMSO solution at 37° C. for 5 min. The reaction was initiated by addition of 100 μl of [^3 H]-NE (11 nM in final concentration) or [^3 H]-HT (10 nM in final concentration). Five minutes later, the reaction was stopped by the addition of 4 ml of ice-cold KRB and the reaction mixture was filtered through Whatman CF/B. Filters were washed twice with 4 ml of KRB and the radioactivity bound was counted with liquid scintillant. Imipramine was used as positive control.

[3] = system: [3H]-serotonin (5-HT) uptake; test: monoamine uptake inhibition, [3H]-serotonin (5-HT), crude synaptosomal preparations of cerebral cortex and hippocampus; type: biochemical; details: [^3 H]-HT 10 nM; 37° C; rat synaptosomes; read-out: Monoamine Reuptake Inhibitory Activity IC50, 5-HT
Description: as §1

Acetylcholinesterase = molecular target: T1, Acetylcholinesterase (Rattus norvegicus, UniProt P37136); test: cholinesterase inhibitory activity using (acetyl-[^3 H])-acetylcholine, S1 fraction of rat cerebral cortex homogenate; type: biochemical, male Wistar rat; details: 30 min incubation
T1 construct: Using the S1 fraction of a male Wistar rat cerebral cortex homogenate as a source of cholinesterase; from tissue; host or cells: male Wistar rat cerebral cortex homogenate, S1 fraction
T1 sequence (P37136 32-614): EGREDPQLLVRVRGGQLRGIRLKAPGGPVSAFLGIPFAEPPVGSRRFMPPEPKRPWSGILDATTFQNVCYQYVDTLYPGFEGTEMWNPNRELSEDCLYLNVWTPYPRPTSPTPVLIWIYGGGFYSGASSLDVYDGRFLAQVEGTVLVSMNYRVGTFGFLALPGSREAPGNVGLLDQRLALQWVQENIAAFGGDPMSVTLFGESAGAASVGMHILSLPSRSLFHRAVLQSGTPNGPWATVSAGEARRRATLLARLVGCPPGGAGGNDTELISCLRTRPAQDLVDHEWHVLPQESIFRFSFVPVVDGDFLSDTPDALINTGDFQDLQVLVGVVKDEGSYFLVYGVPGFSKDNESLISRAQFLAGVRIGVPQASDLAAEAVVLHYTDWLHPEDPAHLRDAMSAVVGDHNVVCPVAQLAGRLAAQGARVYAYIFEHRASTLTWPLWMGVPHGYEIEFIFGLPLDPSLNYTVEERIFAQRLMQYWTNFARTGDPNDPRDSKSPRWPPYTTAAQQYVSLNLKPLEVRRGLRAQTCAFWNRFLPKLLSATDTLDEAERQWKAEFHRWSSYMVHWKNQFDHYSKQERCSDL
Description: The cholinesterase inhibitory activity of the compound of the present invention was tested, using (acetyl-[^3 H])-acetylcholine. Using the S1 fraction of a male Wistar rat cerebral cortex homogenate as a source of cholinesterase, (acetyl-[^3 H])-acetylcholine, as a substrate, and the test compound, as a sample, were incubated for 30 minutes. After the reaction was terminated, a toluene scintillator was added and the reaction mixture was shaken to migrate the [^3 H]-acetic acid resulting from the reaction to the toluene layer, where radioactivity was counted using a liquid scintillation counter to determine the cholinesterase inhibitory activity.
The sample's cholinesterase inhibitory activity was expressed by 50% inhibitory concentration (IC50).

Compound | duration of action [1] | toxicity [1] | IC50 [2] [µM] | IC50 [3] [µM] | IC50 (Acetylcholinesterase) [µM]
CNC(=O)Oc1ccc2c(c1)[C@]1(C)CCN(C)[C@@H]1N2C [physostigmine] | short duration of action | strong toxicity | – | – | –
O=C(CCN1CCN(Cc2ccccc2Cl)CC1)c1cc2c3c(c1)CCN3C(=O)CC2 [30-21] | – | – | 1.54 | 0.0882 | 0.0036
Cc1ccc(C)c(CN2CCN(CCC(=O)c3cc4c5c(c3)CCN5C(=O)CC4)CC2)c1 [30-27] | – | – | 0.559 | 0.0798 | 0.188
O=C(CCN1CCN(Cc2cccc(Cl)c2)CC1)c1cc2c3c(c1)CCN3C(=O)CC2 [30-22] | – | – | 0.795 | 0.0601 | 0.0062
Cc1cccc(CN2CCN(CCC(=O)c3cc4c5c(c3)CCN5C(=O)CC4)CC2)c1 [30-19] | – | – | 2.82 | 0.066 | 0.0119
O=C(CCN1CCC(Cc2ccccc2)CC1)c1cc2c3c(c1)CCN3C(=O)CC2 [31-4] | – | – | 0.16 | 0.0207 | 0.188
